Reference: PubChem BioAssay AID1259407 (Chemical Carcinogenesis Research Information System (CCRIS), 2018)
Calls of active or inactive are those of the source. How the calls were made is not given here.

System: CCRIS mutagenicity, Ames/micronucleus/aberration tests
Assay: CCRIS mutagenicity studies

O=S1OCC2C(CO1)C1(Cl)C(Cl)=C(Cl)C2(Cl)C1(Cl)Cl (configuration not stated)
mutagenic call (End Point: IN VITRO CHROMOSOMAL ABERRATIONS, Test System: HUMAN PERIPHERAL BLOOD LYMPHOCYTES, Metabolic Activation: NONE): active; positive (structural changes)
mutagenic call (End Point: In vitro chromosomal aberrations, Test System: Human (one male) lymphocytes, Metabolic Activation: None): inactive; negative. (200 ug/ml was toxic to the cells.)
mutagenic call (End Point: In vitro chromosomal aberrations, Test System: Human (one male) lymphocytes, Metabolic Activation: Rat, Liver, S-9): inactive; negative. (200 ug/ml was toxic to the cells.)
mutagenic call (End Point: In vitro chromosomal aberrations, Test System: Human lymphocytes, Metabolic Activation: None): active; positive (structural changes and ploidy)
mutagenic call (Test System: AMES SALMONELLA TYPHIMURIUM, Strain/Indicator: TA97A, Metabolic Activation: NONE, Method: PREINCUBATION): active; positive
mutagenic call (Test System: AMES SALMONELLA TYPHIMURIUM, Strain/Indicator: TA97A, Metabolic Activation: NONE, Method: STANDARD PLATE): inactive; negative
mutagenic call (Test System: AMES SALMONELLA TYPHIMURIUM, Strain/Indicator: TA97A, Metabolic Activation: RAT, CECAL CELL FREE EXTRACT, Method: STANDARD PLATE): inactive; negative
mutagenic call (Test System: AMES SALMONELLA TYPHIMURIUM, Strain/Indicator: TA97A, Metabolic Activation: RAT, LIVER, S-9, AROCLOR 1254, Method: STANDARD PLATE): inactive; negative
mutagenic call (Test System: AMES SALMONELLA TYPHIMURIUM, Strain/Indicator: TA97A, Metabolic Activation: RAT, LIVER, S-9, PHENOBARBITAL, Method: PREINCUBATION): active; positive
mutagenic call (Test System: AMES SALMONELLA TYPHIMURIUM, Strain/Indicator: TA97A, Metabolic Activation: RAT, LIVER, S-9, PHENOBARBITAL, Method: STANDARD PLATE): inactive; negative
mutagenic call (Test System: AMES SALMONELLA TYPHIMURIUM, Strain/Indicator: TA98, Metabolic Activation: HAMSTER, LIVER, S-9, AROCLOR 1254 (10%), Method: PREINCUBATION): inactive; negative
mutagenic call (Test System: AMES SALMONELLA TYPHIMURIUM, Strain/Indicator: TA98, Metabolic Activation: NONE, Method: PREINCUBATION): inactive; negative
mutagenic call (Test System: AMES SALMONELLA TYPHIMURIUM, Strain/Indicator: TA98, Metabolic Activation: NONE, Method: STANDARD PLATE): inactive; negative
mutagenic call (Test System: AMES SALMONELLA TYPHIMURIUM, Strain/Indicator: TA98, Metabolic Activation: RAT, CECAL CELL FREE EXTRACT, Method: STANDARD PLATE): inactive; negative
mutagenic call (Test System: AMES SALMONELLA TYPHIMURIUM, Strain/Indicator: TA98, Metabolic Activation: RAT, LIVER, S-9, AROCLOR 1254 (10%), Method: PREINCUBATION): inactive; negative
mutagenic call (Test System: AMES SALMONELLA TYPHIMURIUM, Strain/Indicator: TA98, Metabolic Activation: RAT, LIVER, S-9, AROCLOR 1254, Method: STANDARD PLATE): inactive; negative
mutagenic call (Test System: AMES SALMONELLA TYPHIMURIUM, Strain/Indicator: TA98, Metabolic Activation: RAT, LIVER, S-9, PHENOBARBITAL, Method: PREINCUBATION): inactive; negative
mutagenic call (Test System: AMES SALMONELLA TYPHIMURIUM, Strain/Indicator: TA98, Metabolic Activation: RAT, LIVER, S-9, PHENOBARBITAL, Method: STANDARD PLATE): inactive; negative
mutagenic call (Test System: AMES SALMONELLA TYPHIMURIUM, Strain/Indicator: TA100, Metabolic Activation: HAMSTER, LIVER, S-9, AROCLOR 1254 (10%), Method: PREINCUBATION): inactive; negative
mutagenic call (Test System: AMES SALMONELLA TYPHIMURIUM, Strain/Indicator: TA100, Metabolic Activation: NONE, Method: PREINCUBATION): inactive; negative
mutagenic call (Test System: AMES SALMONELLA TYPHIMURIUM, Strain/Indicator: TA100, Metabolic Activation: NONE, Method: STANDARD PLATE): inactive; negative
mutagenic call (Test System: AMES SALMONELLA TYPHIMURIUM, Strain/Indicator: TA100, Metabolic Activation: RAT, CECAL CELL FREE EXTRACT, Method: STANDARD PLATE): inactive; negative
mutagenic call (Test System: AMES SALMONELLA TYPHIMURIUM, Strain/Indicator: TA100, Metabolic Activation: RAT, LIVER, S-9, AROCLOR 1254 (10%), Method: PREINCUBATION): inactive; negative
mutagenic call (Test System: AMES SALMONELLA TYPHIMURIUM, Strain/Indicator: TA100, Metabolic Activation: RAT, LIVER, S-9, AROCLOR 1254, Method: STANDARD PLATE): inactive; negative
mutagenic call (Test System: AMES SALMONELLA TYPHIMURIUM, Strain/Indicator: TA100, Metabolic Activation: RAT, LIVER, S-9, PHENOBARBITAL, Method: PREINCUBATION): inactive; negative
mutagenic call (Test System: AMES SALMONELLA TYPHIMURIUM, Strain/Indicator: TA100, Metabolic Activation: RAT, LIVER, S-9, PHENOBARBITAL, Method: STANDARD PLATE): inactive; negative
mutagenic call (Test System: AMES SALMONELLA TYPHIMURIUM, Strain/Indicator: TA102, Metabolic Activation: NONE, Method: STANDARD PLATE): inactive; negative
mutagenic call (Test System: AMES SALMONELLA TYPHIMURIUM, Strain/Indicator: TA102, Metabolic Activation: RAT, LIVER, S-9, PHENOBARBITAL, Method: PREINCUBATION): inactive; negative
mutagenic call (Test System: AMES SALMONELLA TYPHIMURIUM, Strain/Indicator: TA102, Metabolic Activation: RAT, LIVER, S-9, PHENOBARBITAL, Method: STANDARD PLATE): inactive; negative
mutagenic call (Test System: AMES SALMONELLA TYPHIMURIUM, Strain/Indicator: TA1535, Metabolic Activation: HAMSTER, LIVER, S-9, AROCLOR 1254 (10%), Method: PREINCUBATION): inactive; negative
mutagenic call (Test System: AMES SALMONELLA TYPHIMURIUM, Strain/Indicator: TA1535, Metabolic Activation: NONE, Method: PREINCUBATION): inactive; negative
mutagenic call (Test System: AMES SALMONELLA TYPHIMURIUM, Strain/Indicator: TA1535, Metabolic Activation: RAT, LIVER, S-9, AROCLOR 1254 (10%), Method: PREINCUBATION): inactive; negative
mutagenic call (Test System: AMES SALMONELLA TYPHIMURIUM, Strain/Indicator: TA1537, Metabolic Activation: HAMSTER, LIVER, S-9, AROCLOR 1254 (10%), Method: PREINCUBATION): inactive; negative
mutagenic call (Test System: AMES SALMONELLA TYPHIMURIUM, Strain/Indicator: TA1537, Metabolic Activation: NONE, Method: PREINCUBATION): inactive; negative
mutagenic call (Test System: AMES SALMONELLA TYPHIMURIUM, Strain/Indicator: TA1537, Metabolic Activation: RAT, LIVER, S-9, AROCLOR 1254 (10%), Method: PREINCUBATION): inactive; negative
mutagenic call (Test System: ESCHERICHIA COLI, Strain/Indicator: AB1157, Metabolic Activation: NONE, Method: PREINCUBATION): active; positive
mutagenic call (Test System: UDS Rat hepatocytes, Strain/Indicator: Primary hepatocytes. Thy incorp, Metabolic Activation: None, Method: Autoradiography): inactive; negative. (toxic at 51 ug/ml)
